According to patent publication US20050124618A1, “Methods of modulating angiogenesis and cancer cell proliferation” (priority 2003, published 2005):
“Also recorded” adds a separate entry of the source.

Key:
[1] = test system: primary human keratinocytes; assay: Proliferation of primary human keratinocytes (comparison with U251); type: cell-based; conditions: 10 μM HET0016, 48 hrs; DDMS concentration not given
Method: (§1) Mean values±SD from three separate experiments, each performed in triplicate, are presented. *** indicates p<0.001 from the respective control values.
(§2) Cell Proliferation Assays: Proliferation studies were performed with cultures plated at a density that ensured exponential growth for at least 5 days. Growth medium was generally replaced by serum-free medium 24 hr after plating. Cells were treated with various concentrations of a given compounds for 24 or 48 hr as described in the Methods. […] Organic solvent never exceeded 0.1% of total culture volume. Cells were harvested by exposure to 0.05% trypsin/EDTA and counted using a hemocytometer.

rat cornea = assay: Rat cornea pocket angiogenesis assay (growth factor pellets); type: in vivo
Method: (i) Preparation of sustained-release polymer: Sustained-release polymer pellets were prepared by making a 1:1 mix of a 12% solution in ethanol of the polymer (Hydron polyhydroxyethylmethacrylate), with saline containing the growth factors. The growth factors bFGF, VEGF, and EGF were dissolved at a concentration of 125 ng/μl. […] 2 μl of these solutions were added to each pellet. Thus, a pellet containing 250 ng of a single growth factor was implanted at random in the right or left eye. The other eye was implanted with a pellet containing the same dose of growth factor+HET0016. In some rats the pellet contained VEGF alone and VEGF+DDMS. 20 μg of the stable 20-HETE agonist analog WIT003 was implanted in one eye to determine whether it induces angiogenesis. […] 9 μl of the 1:1 Hydron/treatment mixture was placed on the ends of 1.5-cm rods. Each pellet contained 250 ng of its respective growth factor. For bFGF we used sucralfate to stabilize and allow sustained release of this growth factor (Volkin D B et al., Biochim Biophys Acta 1993, 1203:18-26). After drying the pellets for 1 hour, they were ready to be implanted into the cornea of rats.
(ii) Pellet implantation: The rats were anesthetized IM with ketamine (80 mg/kg) and xylazine (10 mg/kg). The eyes were topically anesthetized with 0.5% proparacaine (Ophthetic, Alcon, Tex.) and the globes proptosed with a jeweler's forceps. Using an operating microscope, a central intrastromal linear keratotomy, approximately 1.5 mm in length, was performed with a surgical blade (Bard-Parker #11; Becton Dickinson, Franklin Lake, N.Y.) parallel to the insertion of the lateral rectus muscle. A curved iris spatula (No. 10093-13, Fine Science Tools, Belmont, Calif.) approximately 1.5 mm wide and 5 mm long was inserted under the lip of the incision and gently pushed through the stroma toward the temporal limbus of the eye. The distance between the limbus and the base of the pocket was kept at 1.0±0.1 mm. The pellet was advanced to the temporal end of the pocket. Antibiotic ointment (erythromycin) was applied to the anterior surface of the eye.
(iv) Quantitation of corneal neovascularization: Seven days after pellet implantation, the rats were deeply anesthetized as previously described with ketamine and xylazine. The left ventricle was cannulated and the animal was perfused with 20-25 ml saline through the left ventricle followed by 20-25 ml India ink (waterproof drawing ink, Sanford, Bellwood, Ill.). The eyes were marked for orientation, enucleated and placed in 4% formalin for 24 hours. The cornea was dissected free from the surrounding globe and underlying iris, bisected, and loosely mounted between two glass slides, thus gently flattening the cornea. These flat mounts were examined microscopically using a Nikon Diaphot Epi-fluor 2 microscope attached to a CCD video camera and the images were digitized and saved using a computer.
Neovascularization was determined by comparing total vessel length in the control and experimental eyes. Vessel length was determined by tracing each vessel from the limbus to the pellet. Total length is the sum of these values in pixels and was determined using conventional image analysis software (Sigma Scan Pro, SPSS, Chicago, Ill.)

U251 human glioma cells = assay: U251 cell proliferation assay (cell counting); type: cell-based
Method: Culture Conditions: Cells were routinely maintained in DMEM (Invitrogen) supplemented with 10% heat-inactivated fetal bovine serum (FBS), penicillin (10 IU/ml), streptomycin (10 μg/ml) and 10% non-essential amino acids (all purchased from Invitrogen). Cells were maintained at 37° C. in a humidified incubator containing 5% CO2. They were grown in medium containing 10% FBS, which was then replaced with serum-free medium where U251 cells grow exponentially. Treatments were initiated one day after serum removal.
as §2

9L rat gliosarcoma cells = assay: 9L cell proliferation assay (cell counting); type: cell-based
Method: Culture Conditions: 9L rat gliosarcoma cells were purchased from ATC (Gaithersburg, Md.) and were maintained in DMEM (Invitrogen) supplemented with 10% heat-inactivated fetal bovine serum (FBS), penicillin (10 IU/ml), streptomycin (10 μg/ml) and 10% non-essential amino acids (all purchased from Invitrogen). Cells were maintained at 37° C. in a humidified incubator containing 5% CO2. They were grown in medium containing 10% FBS, which was then replaced with serum-free medium (give type and source) where 9L cells grow exponentially.
Cell Proliferation Assays: Proliferation studies were performed with cultures plated at a density that ensured exponential growth for at least 5 days. Growth medium were generally replaced by serum free medium 24 hr after plating. […] The concentration of the ethanol added to the media never exceeded 0.1%. Cells were harvested by exposure to a solution of 0.05% Trypsin/EDTA and counted using a hemocytometer.

CYP4A11 mRNA = assay: RT-PCR of CYP4A11 mRNA in U251 cultures; type: cell-based, human; conditions: 100 μM DDMS
Method: EtOH-treated cultures were used as solvent controls. Briefly, total RNA was isolated with Trizol reagent (Invitrogen) and 1-2 μg RNA was used to synthesize cDNA using a First Strand synthesis kit (Invitrogen). We used PCR primers that specifically recognize CYP4A11, and β-actin-specific primers. A 1 μCi ^32P per sample was added to Platinum PCR Supermix (Invitrogen). The PCR conditions used to amplify CYP4A 11 and β-actin consisted of a precycle of 95° C for 3 min followed by 35 cycles of 95° C for 45 s, 52° C. for 30 s, and 72° C. for 2 min, with final extension at 72° C. for 10 min. The primers used were: β-actin forward primer, 5′-TGCGTGACATTAAGGAGAAG-3′ (SEQ ID NO:3); β-actin reverse primer, 5′-GCT CGT AGC TCT TCT CCA-3′ (SEQ ID NO:4); CYP4A11 forward primer, 5′-CCACCTGGACCAGAGGCCCTACACCACC-3′ (SEQ ID NO:5); CYP4A11 reverse primer, 5′-AGGATATGGGCAGACAGGAA-3′(SEQ ID NO:6). PCR products were subjected to electrophoresis in 5% bis-acrylamide gels and visualized by autoradiography.

HUVECs = assay: Proliferation of normal HUVECs (comparison with U251); type: cell-based, human; conditions: 10 μM HET0016, 48 hrs; DDMS concentration not given
Method: as §1, §2

CYP4A = conditions: read-out: IC50 for inhibition of CYP4A enzyme activity; cited from earlier work

CS(=O)(=O)NC(=O)CCCCCCCCCC=C(Br)Br [DDMS, dibromododecenyl methylsulfonimide]
effect on basal growth or proliferation of primary human keratinocytes [1]: Neither DDMS or HET0016 had any effect
angiogenic response to inhibitor alone (rat cornea; 20 μg HET0016 or 10 μg DDMS per pellet, no growth factor): Neither HET0016 nor DDMS alone elicited a response different from saline
effect on the angiogenic response to VEGF (rat cornea; VEGF 250 ng/pellet + 10 μg DDMS): as effective as 20 μg HET0016; also recorded: completely inhibits the angiogenic response; also recorded: abolished; also recorded: inhibit angiogenic responses to VEGF
blockade of U251 cell proliferation (U251 human glioma cells; DDMS, concentration not given): about 60%
concentration dependence of inhibition of U251 proliferation (U251 human glioma cells; various concentrations): inhibited the proliferation of U251 cancer cells in a dose-dependent manner; also recorded: inhibited the proliferation of U251 cells in a concentration dependent manner
effect on 9L cell number (9L rat gliosarcoma cells; DDMS 10 μM): significant reduction in cell number
inhibition of 9L cell proliferation (9L rat gliosarcoma cells; DDMS, concentration not given): 60%
CYP4A11 transcript levels (CYP4A11 mRNA): not affected
effect on basal growth or proliferation of normal HUVECs (HUVECs): Neither DDMS or HET0016 had any effect
IC50 (CYP4A): ~10 µM
